In the NIST ThermoML archive (doi:10.1007/s10765-009-0579-1):

Experiment: xn = mol fraction of the nth substance listed
Details: Gas; for viscosity: Oscillating disk viscometry; for mass density: Pycnometric method

CC(F)(F)Cl [1-chloro-1,1-difluoroethane] + FC(F)Cl
Details | mass density [kg/m3] | viscosity [mPa·s]
373.15 K, 2604 kPa, x2 = 0.7502 | 99.88 | 0.01618
373.15 K, 2789 kPa, x2 = 0.7502 | 110.3 | 0.01638
373.15 K, 2988 kPa, x2 = 0.7502 | 121.8 | 0.01665
398.15 K, 100.6 kPa, x2 = 0.7502 | 2.753 | 0.01605
398.15 K, 101.6 kPa, x2 = 0.2615 | 2.997 | 0.01472
398.15 K, 101.8 kPa, x2 = 0.5169 | 2.886 | 0.01547
398.15 K, 102 kPa, x2 = 0.2615 | 3.006 | 0.0147
398.15 K, 278.9 kPa, x2 = 0.2615 | 8.354 | 0.01475
398.15 K, 345.7 kPa, x2 = 0.5169 | 9.975 | 0.01548
398.15 K, 404.8 kPa, x2 = 0.7502 | 11.29 | 0.01605
398.15 K, 468 kPa, x2 = 0.2615 | 14.28 | 0.01477
398.15 K, 591.5 kPa, x2 = 0.5169 | 17.39 | 0.01553
398.15 K, 654.1 kPa, x2 = 0.2615 | 20.27 | 0.01482
398.15 K, 779.9 kPa, x2 = 0.7502 | 22.29 | 0.01612
398.15 K, 834.7 kPa, x2 = 0.5169 | 25.01 | 0.01557
398.15 K, 908.9 kPa, x2 = 0.2615 | 28.88 | 0.01485
398.15 K, 1036 kPa, x2 = 0.7502 | 30.15 | 0.01619
398.15 K, 1081 kPa, x2 = 0.5169 | 33.05 | 0.01562
398.15 K, 1153 kPa, x2 = 0.2615 | 37.53 | 0.01493
398.15 K, 1326 kPa, x2 = 0.5169 | 41.4 | 0.01572
398.15 K, 1374 kPa, x2 = 0.7502 | 40.98 | 0.01628
398.15 K, 1397 kPa, x2 = 0.2615 | 46.73 | 0.01504
398.15 K, 1569 kPa, x2 = 0.5169 | 50.2 | 0.01584
398.15 K, 1608 kPa, x2 = 0.2615 | 55.16 | 0.0151
398.15 K, 1667 kPa, x2 = 0.7502 | 50.88 | 0.01642
398.15 K, 1821 kPa, x2 = 0.2615 | 63.97 | 0.01525
398.15 K, 1824 kPa, x2 = 0.5169 | 59.84 | 0.01596
398.15 K, 2016 kPa, x2 = 0.7502 | 63.22 | 0.01657
398.15 K, 2031 kPa, x2 = 0.2615 | 73.54 | 0.01542
398.15 K, 2121 kPa, x2 = 0.5169 | 71.87 | 0.01616
398.15 K, 2251 kPa, x2 = 0.2615 | 84.17 | 0.0156
398.15 K, 2376 kPa, x2 = 0.5169 | 82.87 | 0.01632
398.15 K, 2376 kPa, x2 = 0.7502 | 77.16 | 0.01679
398.15 K, 2442 kPa, x2 = 0.2615 | 94.09 | 0.01576
398.15 K, 2634 kPa, x2 = 0.5169 | 94.96 | 0.01655
398.15 K, 2637 kPa, x2 = 0.2615 | 105.1 | 0.01598
398.15 K, 2813 kPa, x2 = 0.7502 | 95.48 | 0.01711
398.15 K, 2835 kPa, x2 = 0.2615 | 117.2 | 0.01629
398.15 K, 2884 kPa, x2 = 0.5169 | 107.4 | 0.0168
398.15 K, 3101 kPa, x2 = 0.2615 | 136 | 0.01673
398.15 K, 3115 kPa, x2 = 0.7502 | 109.3 | 0.01741
398.15 K, 3195 kPa, x2 = 0.5169 | 124.9 | 0.01716
398.15 K, 3322 kPa, x2 = 0.2615 | 154.3 | 0.01724
398.15 K, 3403 kPa, x2 = 0.7502 | 128.5 | 0.01784
398.15 K, 3432 kPa, x2 = 0.5169 | 139.6 | 0.01752
398.15 K, 3481 kPa, x2 = 0.2615 | 170.2 | 0.01773
398.15 K, 3698 kPa, x2 = 0.2615 | 196.3 | 0.01858
398.15 K, 3714 kPa, x2 = 0.5169 | 159.3 | 0.01808
398.15 K, 3825 kPa, x2 = 0.7502 | 146.7 | 0.01827
398.15 K, 3854 kPa, x2 = 0.2615 | 222.4 | 0.01953
398.15 K, 3961 kPa, x2 = 0.5169 | 179.5 | 0.01865
398.15 K, 3998 kPa, x2 = 0.2615 | 261.2 | 0.02101
398.15 K, 4086 kPa, x2 = 0.7502 | 162.7 | 0.01865
398.15 K, 4222 kPa, x2 = 0.5169 | 204.9 | 0.01952
398.15 K, 4343 kPa, x2 = 0.7502 | 180.2 | 0.01918
398.15 K, 4446 kPa, x2 = 0.5169 | 231.6 | 0.02048
398.15 K, 4642 kPa, x2 = 0.7502 | 203.6 | 0.01991
398.15 K, 4840 kPa, x2 = 0.7502 | 218.9 | 0.0205
423.15 K, 101.1 kPa, x2 = 0.7502 | 2.597 | 0.01682
